In patent US20100048606A1, “10-Substituted Cytisine Derivatives and Methods of Use Thereof” (Georgetown University Office of Technology Commercialization, priority 2006, published 2010):
pEC50, pKi: −log10 of the molar value. Like-named read-outs stand apart in the source and are kept apart here.

How the values were obtained:
α2β2 nAChR = biological target: T1, α2β2 nAChR (Rattus norvegicus, UniProt P12389+P12390); experiment: Competition binding with [3H]epibatidine, membrane homogenates of stably transfected cells; settings: for potency estimated from few doses: read-out: Estimated Ki α2β2
T1 construct: expressed in transfected cells

α2β4 nAChR = biological target: T2, α2β4 nAChR (Rattus norvegicus, UniProt P12389+P12392); experiment: as above; settings: for potency estimated from few doses: read-out: Estimated Ki α2β4
T2 construct: expressed in transfected cells

α3β2 nAChR = biological target: T3, α3β2 nAChR (Rattus norvegicus, UniProt P04757+P12390); experiment: as above; settings: for potency estimated from few doses: read-out: Estimated Ki α3β2
T3 construct: expressed in transfected cells

α3β4 nAChR = biological target: T4, α3β4 nAChR (Rattus norvegicus, UniProt P04757+P12392); experiment: as above; settings: for potency estimated from few doses: read-out: Estimated Ki α3β4
T4 construct: expressed in transfected cells

α4β2 nAChR [1] = biological target: T5, α4β2 nAChR (Rattus norvegicus, UniProt P09483+P12390); experiment: as above; settings: for Affinity ratio (α3β4/α4β2): Ki α3β4 divided by Ki α4β2; for potency estimated from few doses: read-out: Estimated Ki α4β2
T5 construct: expressed in transfected cells

α4β4 nAChR = biological target: T6, α4β4 nAChR (Rattus norvegicus, UniProt P09483+P12392); experiment: as above; settings: for potency estimated from few doses: read-out: Estimated Ki α4β4
T6 construct: expressed in transfected cells

[2] = biological target: nAChRs of rat forebrain tissue (Rattus norvegicus, UniProt P09483+P12390); format: binding; settings: for pKi: mean of three to five independent measurements
α6β42 = experiment: Primary screening, single concentration competition binding assay; settings: estimated from single concentration (10 μM) competition binding, read-out: Estimated Ki α6β42
α4β2 nAChR's = biological target: T7, α4β2 nAChR's (Homo sapiens, UniProt P17787+P43681); experiment: 86Rb+ efflux assay, agonist activity; format: cell-based; settings: for Agonist activity at α4β2 (86Rb+ efflux): tested at 0.1, 1, 10 and 100 μM
T7 construct: expressed in transfected cells

α3β4 nAChR subtype = biological target: T8, α3β4 nAChR subtype (Rattus norvegicus, UniProt P04757+P12392); experiment: Antagonist activity, block of nicotine stimulated responses; format: cell-based; settings: for Inhibition of the function of the α3β4 nAChR subtype: at 100 μM; for Block of nicotine stimulated responses at α3β4: concentrations up to 10 μM
T8 construct: expressed in transfected cells; host or cells: KXα3β4R2 cells (named in the result head)
Protocol: (§1) Compounds 15 and 17a are antagonists of the α4β2 nAChR subtype. […] Compounds 15 and 17a were tested for their antagonist activities at the α4β2 and α3β4 receptors at concentrations from 0.1 μM to 100 μM. […] This is typical of most classical nicotinic ligands.^34

α4β2 nAChR subtype = biological target: T9, α4β2 nAChR subtype (Homo sapiens, UniProt P17787+P43681); experiment: as above; format: cell-based; settings: for inhibition at 100 µM: read-out: Inhibition of the function of the α4β2 nAChR subtype; for Block of nicotine stimulated responses at α4β2: concentrations up to 10 μM
T9 construct: expressed in transfected cells
Protocol: as §1

[3] = background statement; cited from earlier work
[4] = biological target: rat α3β4 nAChRs (KXα3β4R2 cells) (Rattus norvegicus, UniProt P04757+P12392); experiment: cell-based; settings: read-out: Relative Emax (% of nicotine Emax) α3β4 nAChR's
α4β2 nAChR [5] = biological target: T10, α4β2 nAChR (Homo sapiens, UniProt P17787+P43681); settings: read-out: EC50 (partial agonist at α4β2 nAChR); reported in the literature; cited from earlier work
α4β2 nAChR [6] = biological target: T10, α4β2 nAChR; settings: read-out: Ki (binding affinity); reported in the literature; cited from earlier work
[7] = mean of three to five independent measurements, [3H]epibatidine, read-out: Ki α2β2
[8] = mean of three to five independent measurements, [3H]epibatidine, read-out: Ki α2β4
[9] = mean of three to five independent measurements, [3H]epibatidine, read-out: Ki α3β2
[10] = mean of three to five independent measurements, [3H]epibatidine, read-out: Ki α3β4
[11] = mean of three to five independent measurements, [3H]epibatidine, read-out: Ki α4β2
[12] = mean of three to five independent measurements, [3H]epibatidine, read-out: Ki α4β4
[13] = primary screening, estimated from single concentration (10 μM) competition binding
[14] = estimated from single run concentration binding assay

Compound	pKi (α2β2 nAChR; [7])	pKi (α2β4 nAChR; [8])	pKi (α3β2 nAChR; [9])	pKi (α3β4 nAChR; [10])	Affinity ratio (α3β4/α4β2) (α4β2 nAChR [1])	pKi (α4β2 nAChR [1]; [11])	pKi (α4β4 nAChR; [12])	pKi [2]	potency estimated from few doses (α2β4 nAChR; [13]) [µM]	potency estimated from few doses (α3β2 nAChR; [13]) [µM]	potency estimated from few doses (α3β4 nAChR; [13]) [µM]	potency estimated from few doses (α4β2 nAChR [1]; [13]) [µM]	potency estimated from few doses (α4β4 nAChR; [13]) [µM]	potency estimated from few doses (α6β42) [µM]	also measured
CCC(=O)[C@H]1C2CNCC(C2)c2cccc(=O)n21 (single isomer, unassigned; (-)) [(−)-23, 6-Propionyl-1,2,3,4,5,6-hexahydro-1,5-methano-pyrido[1,2-a][1,5]diazocin-8-one]	4.85	4.30	3.52	3.55	18	4.80	4.70	4.64							
CN1CCCC(Cn2ccccc2=O)C1 (centres unmarked) [Compound 6b, 1-[(1-Methylpiperidin-3-yl)methyl]pyridin-2(1H)-one]									180	6	160	0.98	2.6	76	potency estimated from few doses (α2β2 nAChR; [13]): 19 µM
O=c1ccccn1CC1CCNCC1 [Compound 7a, 1-(Piperidin-4-ylmethyl)pyridin-2(1H)-one]									80	12	750	1.6	5.4	87	
Cc1cc2n(c(=O)c1)CC1CNCC2C1 (racemic) [rac-15, 10-Methyl-1,2,3,4,5,6-hexahydro-1,5-methano-pyrido[1,2-a][1,5]diazocin-8-one]					3526										pKi (α2β2 nAChR): 8.12; pKi (α2β4 nAChR): 6.74; pKi (α3β2 nAChR): 6.27; pKi (α3β4 nAChR): 5.17; pKi (α4β2 nAChR [1]): 8.72; Affinity ratio (α3β4/α4β2) (α4β2 nAChR [1]; listed as 15): > 3000; pKi (α4β4 nAChR): 7.42; Agonist activity at α4β2 (86Rb+ efflux) (α4β2 nAChR's): did not show agonist activity; Inhibition of the function of the α3β4 nAChR subtype (α3β4 nAChR subtype): only slightly inhibited; Block of nicotine stimulated responses at α3β4 (α3β4 nAChR subtype): did not significantly block nicotine stimulated responses; inhibition at 100 µM (α4β2 nAChR subtype): > 50%; Block of nicotine stimulated responses at α4β2 (α4β2 nAChR subtype): did not significantly block nicotine stimulated responses
Cc1ccc(-c2ccc3n(c2=O)CC2CNCC3C2)s1 (single isomer, unassigned; (-)) [(−)-21c, 9-(5-Methyl-2-thienyl)-1,2,3,4,5,6-hexahydro-1,5-methano-pyrido[1,2-a][1,5]diazocin-8-one]	6.30	5.77	5.22	4.64	59	6.41	6.23	5.92							
O=c1c(-c2ccc(F)cc2)ccc2n1CC1CNCC2C1 (single isomer, unassigned; (-)) [(−)-21a, 9-(4-Fluorophenyl)-1,2,3,4,5,6-hexahydro-1,5-methano-pyrido[1,2-a][1,5]diazocin-8-one]	6.09	5.09	4.92	4.18	157	6.38	5.48	5.51							
Clc1ccc(C2CC3CCC2N3)cn1 (racemic) [(±)-Epibatidine]															Analgesic potency [3]: approximately 500 times that of morphine
O=c1cc(CO)cc2n1CC1CNCC2C1 (racemic) [rac-17a, 10-(Hydroxymethyl)-1,2,3,4,5,6-hexahydro-1,5-methano-pyrido[1,2-a][1,5]diazocin-8-one]					909										pKi (α2β2 nAChR): 7.49; pKi (α2β4 nAChR): 6.52; pKi (α3β2 nAChR): 6.33; pKi (α3β4 nAChR): 5.00; pKi (α4β2 nAChR [1]): 7.96; pKi (α4β4 nAChR): 7.17; Agonist activity at α4β2 (86Rb+ efflux) (α4β2 nAChR's): did not show agonist activity; Inhibition of the function of the α3β4 nAChR subtype (α3β4 nAChR subtype): only slightly inhibited; Block of nicotine stimulated responses at α3β4 (α3β4 nAChR subtype): did not significantly block nicotine stimulated responses; inhibition at 100 µM (α4β2 nAChR subtype): > 50%; Block of nicotine stimulated responses at α4β2 (α4β2 nAChR subtype): did not significantly block nicotine stimulated responses
COC(=O)[C@H]1C2CNCC(C2)c2cccc(=O)n21 (single isomer, unassigned; (-)) [(−)-22, 8-Oxo-1,3,4,5,6,8-hexahydro-2H-1,5-methano-pyrido[1,2-a][1,5]diazocine-6-carboxylic acid methyl ester]	4.77	4.12	3.60	3.49	13	4.62	4.48	4.32							
CN1CCCC1c1cccnc1 (single isomer, unassigned; (-)) [(−)-Nicotine, reference compound]															Emax (α4β2 nAChR's; read-out: Relative Emax (% of nicotine Emax) α4β2 nAChR's, 86Rb+ efflux, mean ± standard error of three experiments): 100%; Emax [4]: 100%
O=c1ccccn1CC1CCCN(Cc2ccccc2)C1 (centres unmarked) [Compound 6c, 1-[(1-Benzylpiperidin-3-yl)methyl]pyridin-2(1H)-one]									91	4.3	83	0.54	1.4	54	potency estimated from few doses (α2β2 nAChR; [13]): 100 µM
CCCCc1ccc(-c2ccc3n(c2=O)CC2CNCC3C2)cc1 (single isomer, unassigned; (-)) [(−)-21b, 9-(4-Butylphenyl)-1,2,3,4,5,6-hexahydro-1,5-methano-pyrido[1,2-a][1,5]diazocin-8-one]	5.10	4.55	4.44	3.85	17	5.09	4.89	4.68							
O=c1cccc2n1C[C@@H]1CNC[C@H]2C1 [(−)-Cytisine (4), (−)-Cytisine]					144										pEC50 (α4β2 nAChR [5]): ~6.00; pKi (α4β2 nAChR [6]): ~9.00
10-Cyclohexyl(methoxymethyl)-1,2,3,4,5,6-hexahydro-1,5-methano-pyrido[1,2-a][1,5]diazocin-8-one [rac-25]					>862										potency estimated from few doses (α2β2 nAChR; [14]): < 0.017 µM; potency estimated from few doses (α2β4 nAChR; [14]): 0.78 µM; potency estimated from few doses (α3β2 nAChR; [14]): 0.8 µM; potency estimated from few doses (α3β4 nAChR; [14]): 25 µM; potency estimated from few doses (α4β2 nAChR [1]; [14]): < 0.029 µM; potency estimated from few doses (α4β4 nAChR; [14]): 0.15 µM; potency estimated from few doses ([2]; estimated from single run concentration binding assay, read-out: Estimated Ki Forebrain): 0.17 µM
O=c1ccccn1CC1CCN(Cc2ccccc2)CC1 [Compound 7b, 1-[(1-Benzyl-piperidin-4-yl)methyl]pyridin-2(1H)-one]									440	7.3	620	1.3	4.5	470	potency estimated from few doses (α2β2 nAChR; [13]): 26 µM
O=c1ccccn1CC1CCCNC1 (centres unmarked) [Compound 6a, 1-(Piperidin-3-ylmethyl)pyridin-2(1H)-one]									159	18.7	535	1.78	5.55	253	potency estimated from few doses (α2β2 nAChR; [13]): 4.63 µM
